According to US20240092758A1, “IMIDAZOLO INDAZOLE COMPOUNDS AS JAK INHIBITORS” (Theravance Biopharma R&D IP, LLC, priority 2021, published 2024):

Key:
[1] = target: JAK1 (Homo sapiens (Human), UniProt P23458); test: Biochemical JAK kinase assay (LanthaScreen), JAK1; settings: for Ki: read-out: JAK1 pKi (converted)
Procedure: (§1) A panel of four LanthaScreen JAK biochemical assays (JAK1, 2, 3 and Tyk2) were carried in a common kinase reaction buffer (50 mM HEPES, pH 7.5, 0.01% Brij-35, 10 mM MgCl2, and 1 mM EGTA). Recombinant GST-tagged JAK enzymes and a GFP-tagged STAT1 peptide substrate were obtained from Life Technologies.
(§2) Serially diluted compounds were pre-incubated with each of the four JAK enzymes and the substrate in white 384-well microplates (Corning) at ambient temperature for 1 h. ATP was subsequently added to initiate the kinase reactions in 10 μL total volume, with 1% DMSO. The final enzyme concentrations for JAK1, 2, 3 and Tyk2 are 4.2 nM, 0.1 nM, 1 nM, and 0.25 nM respectively; the corresponding Km ATP concentrations used are 25 μM, 3 μM, 1.6 μM, and 10 μM; while the substrate concentration is 200 nM for all four assays. Kinase reactions were allowed to proceed for 1 hour at ambient temperature before a 10 μL preparation of EDTA (10 mM final concentration) and Tb-anti-pSTAT1 (pTyr701) antibody (Life Technologies, 2 nM final concentration) in TR-FRET dilution buffer (Life Technologies) was added. The plates were allowed to incubate at ambient temperature for 1 h before being read on the EnVision reader (Perkin Elmer). Emission ratio signals (520 nm/495 nm) were recorded and utilized to calculate the percent inhibition values based on DMSO and background controls.
(§3) For dose-response analysis, percent inhibition data were plotted vs. compound concentrations, and IC50 values were determined from a 4-parameter robust fit model with the Prism software (GraphPad Software). Results were expressed as pIC50 (negative logarithm of IC50) and subsequently converted to pKi (negative logarithm of dissociation constant, Ki) using the Cheng-Prusoff equation.
(§4) Test compounds having a lower Ki value or higher pKi value in the four JAK assays show greater inhibition of JAK activity.

[2] = tested on: IL-13 induced STAT6 phosphorylation in BEAS-2B human lung epithelial cells; test: Cellular JAKI potency assay (BEAS-2B); type: cell-based; settings: Homo sapiens, BEAS-2B, BEAS-2B cells, read-out: BEAS2B pIC50 (converted)
Procedure: The JAKI cellular potency assay was carried out by measuring inhibition of interleukin-13 (IL-13, R&D Systems) induced STAT6 phosphorylation in BEAS-2B human lung epithelial cells (ATCC). BEAS-2B cells were grown at 37° C. in a 5% CO2 humidified incubator in 50% DMEM/50% F-12 medium (Life Technologies) supplemented with 10% FBS (Hyclone), 100 U/mL penicillin, 100 μg/mL streptomycin (Life Technologies), and 2 mM GlutaMAX (Life Technologies). On day 1 of the assay, cells were seeded at a 7,500 cells/well density in white poly-D-lysine-coated 384-well plates (Corning) with 25 μL medium and were allowed to adhere overnight in the incubator. On day 2 of the assay, the medium was removed and replaced with 12 μL of assay buffer (Hank's Balanced Salt Solution/HBSS, 25 mM HEPES, and 1 mg/ml bovine serum albumin/BSA) containing dose-responses of test compounds. Compounds were serially diluted in DMSO and then diluted another 1000-fold in media to bring the final DMSO concentration to 0.1%. Cells were incubated with test compounds at 37° C. for 1 h and followed by the addition of 12 μl of pre-warmed IL-13 (80 ng/mL in assay buffer) for stimulation. After incubating at 37° C. for 30 min, the assay buffer (containing compound and IL-13) was removed, and 10 μL of cell lysis buffer (25 mM HEPES, 0.1% SDS, 1% NP-40, 5 mM MgCl2, 1.3 mM EDTA, 1 mM EGTA, supplemented with Complete Ultra mini protease inhibitors and PhosSTOP from Roche Diagnostics). The plates were shaken at ambient temperature for 30 min before the addition of detection reagents. Levels of pSTAT6 were measured using the AlphaLISA SureFire Ultra pSTAT6 (Tyr641) assay kit from PerkinElmer. For dose-response analysis, percent inhibition data were plotted vs. compound concentrations, and IC50 values were determined from a 4-parameter robust fit model with the Graphpad Prism software. Results are expressed as the negative logarithm of the IC50 value, pIC50.
Test compounds having a lower IC50 value or higher pIC50 value in this assay show greater inhibition of IL-13 induced STAT6 phosphorylation.

[3] = target: JAK2 (Homo sapiens (Human), UniProt O60674); test: Biochemical JAK kinase assay (LanthaScreen), JAK2; settings: for Ki: read-out: JAK2 pKi (converted)
Procedure: as §1, §2, §3, §4

Chain of JAK1 (P23458 whole entry): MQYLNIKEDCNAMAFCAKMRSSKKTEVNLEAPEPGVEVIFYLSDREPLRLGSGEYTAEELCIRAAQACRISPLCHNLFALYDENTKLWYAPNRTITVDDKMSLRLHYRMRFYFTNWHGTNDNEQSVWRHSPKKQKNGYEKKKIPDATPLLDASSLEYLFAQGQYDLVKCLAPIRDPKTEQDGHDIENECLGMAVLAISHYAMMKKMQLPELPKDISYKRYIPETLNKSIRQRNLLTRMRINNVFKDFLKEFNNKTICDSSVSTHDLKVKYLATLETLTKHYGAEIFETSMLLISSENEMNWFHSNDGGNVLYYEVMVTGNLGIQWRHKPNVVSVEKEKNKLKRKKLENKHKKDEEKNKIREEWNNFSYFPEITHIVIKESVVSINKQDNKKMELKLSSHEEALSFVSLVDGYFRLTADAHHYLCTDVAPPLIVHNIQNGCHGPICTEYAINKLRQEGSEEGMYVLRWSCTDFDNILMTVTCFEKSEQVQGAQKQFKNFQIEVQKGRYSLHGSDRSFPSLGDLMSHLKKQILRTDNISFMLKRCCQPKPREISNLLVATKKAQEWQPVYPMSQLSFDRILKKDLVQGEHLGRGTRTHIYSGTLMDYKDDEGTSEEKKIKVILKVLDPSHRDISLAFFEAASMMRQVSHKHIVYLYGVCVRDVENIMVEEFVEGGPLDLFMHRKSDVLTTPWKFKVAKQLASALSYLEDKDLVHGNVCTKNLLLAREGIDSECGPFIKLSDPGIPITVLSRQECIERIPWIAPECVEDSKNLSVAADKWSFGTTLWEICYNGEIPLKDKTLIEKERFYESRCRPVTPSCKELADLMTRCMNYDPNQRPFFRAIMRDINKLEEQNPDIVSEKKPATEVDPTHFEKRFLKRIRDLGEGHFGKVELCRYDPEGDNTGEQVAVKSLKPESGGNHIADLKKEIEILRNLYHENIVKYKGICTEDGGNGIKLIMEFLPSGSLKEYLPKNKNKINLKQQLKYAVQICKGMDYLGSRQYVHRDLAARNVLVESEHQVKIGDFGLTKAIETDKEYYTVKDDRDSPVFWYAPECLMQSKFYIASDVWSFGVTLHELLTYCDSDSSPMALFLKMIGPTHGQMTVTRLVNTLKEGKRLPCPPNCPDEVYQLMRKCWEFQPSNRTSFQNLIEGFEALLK
Chain of JAK2 (O60674 whole entry): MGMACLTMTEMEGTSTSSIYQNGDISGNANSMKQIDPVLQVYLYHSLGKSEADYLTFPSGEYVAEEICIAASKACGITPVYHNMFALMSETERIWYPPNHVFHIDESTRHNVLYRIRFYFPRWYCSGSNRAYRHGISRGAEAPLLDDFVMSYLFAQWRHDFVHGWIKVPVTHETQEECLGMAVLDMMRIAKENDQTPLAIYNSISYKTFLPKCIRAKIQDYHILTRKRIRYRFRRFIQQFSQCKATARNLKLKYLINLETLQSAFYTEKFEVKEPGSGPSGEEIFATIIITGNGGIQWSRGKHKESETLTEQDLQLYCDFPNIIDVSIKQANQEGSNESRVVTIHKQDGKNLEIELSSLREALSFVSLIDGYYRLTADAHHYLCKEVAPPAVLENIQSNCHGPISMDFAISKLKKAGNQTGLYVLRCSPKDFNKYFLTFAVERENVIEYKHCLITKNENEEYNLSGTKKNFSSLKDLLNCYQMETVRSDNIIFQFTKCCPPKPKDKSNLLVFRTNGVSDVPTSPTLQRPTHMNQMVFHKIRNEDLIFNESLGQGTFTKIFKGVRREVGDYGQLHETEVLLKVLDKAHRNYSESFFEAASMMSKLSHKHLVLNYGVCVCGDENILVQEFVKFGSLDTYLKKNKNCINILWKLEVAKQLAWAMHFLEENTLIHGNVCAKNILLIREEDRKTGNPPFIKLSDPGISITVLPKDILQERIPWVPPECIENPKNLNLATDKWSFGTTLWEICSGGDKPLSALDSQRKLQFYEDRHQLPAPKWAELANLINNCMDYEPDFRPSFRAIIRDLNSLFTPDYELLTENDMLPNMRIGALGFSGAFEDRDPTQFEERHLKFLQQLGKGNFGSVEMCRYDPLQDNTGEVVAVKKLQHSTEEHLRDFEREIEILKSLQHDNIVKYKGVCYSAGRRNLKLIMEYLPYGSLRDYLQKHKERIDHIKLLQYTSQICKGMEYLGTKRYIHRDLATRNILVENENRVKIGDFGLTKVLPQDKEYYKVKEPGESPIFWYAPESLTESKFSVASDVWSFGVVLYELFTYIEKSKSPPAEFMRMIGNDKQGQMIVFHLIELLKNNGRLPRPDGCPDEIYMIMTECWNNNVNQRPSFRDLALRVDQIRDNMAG

Compound	Ki [1] [nM]	IC50 [2] [nM]	Ki [3] [nM]	JAK1 pKi [1]	JAK2 pKi [3]
CCc1cc(O)ccc1-c1ccc2c(-c3nc(C4=C(C)CCNC4)c[nH]3)n[nH]c2c1 [Example 232]	0.1 to 1	3.16 to 10	0.1 to 1		
CCc1cc(O)ccc1-c1ccc2c(-c3nc(C4=C[C@H](CC(=O)N(CC)CC)NC4)c[nH]3)n[nH]c2c1F [Example 340]		10 to 31.6		A (A represents a pKi value ≥10 (Ki≤0.1 nM))	A (A represents a pKi value ≥10 (Ki≤0.1 nM))
CCc1cc(O)ccc1-c1ccc2c(-c3nc(C4=CCN(C(=O)CCNC)C4)c[nH]3)n[nH]c2c1F [Example 380]	0.1 to 1	31.6 to 100			A (A represents a pKi value ≥10 (Ki≤0.1 nM))
CCOC(=O)C[C@H]1C=C(c2c[nH]c(-c3n[nH]c4c(F)c(-c5ccc(O)cc5CC)ccc34)n2)CN1 [Example 286]	0.1 to 1	3.16 to 10	0.1 to 1		
CCc1cc(O)ccc1-c1ccc2c(-c3nc(C4=CCN(CCS(=O)(=O)NC)C4)c[nH]3)n[nH]c2c1 [Example 96]	0.1 to 1	10 to 31.6			A (A represents a pKi value ≥10 (Ki≤0.1 nM))
CCc1cc(O)ccc1-c1ccc2c(-c3nc(C4=CCNC(CC)C4)c[nH]3)n[nH]c2c1 (stereo not drawn) [Example 312]	0.1 to 1	10 to 31.6	0.1 to 1		
CCc1cc(O)ccc1-c1ccc2c(-c3nc(C4=CCN(CCN5CCCC5=O)CC4)c[nH]3)n[nH]c2c1F [Example 119]	0.1 to 1	10 to 31.6	0.1 to 1		
CCc1cc(O)ccc1-c1ccc2c(-c3nc(C4=CCN(CCC(C)(C)O)CC4)c[nH]3)n[nH]c2c1 [Example 35]		3.16 to 10		A (A represents a pKi value ≥10 (Ki≤0.1 nM))	A (A represents a pKi value ≥10 (Ki≤0.1 nM))
CCc1cc(O)ccc1-c1ccc2c(-c3nc(C4=CCN(C(=O)COCCN(C)C)C4)c[nH]3)n[nH]c2c1F [Example 374]	0.1 to 1	31.6 to 100			A (A represents a pKi value ≥10 (Ki≤0.1 nM))
CCc1cc(O)ccc1-c1ccc2c(-c3nc(C4=CCN(C[C@@H](C)CO)CC4)c[nH]3)n[nH]c2c1F [Example 39]	0.1 to 1	10 to 31.6	0.1 to 1		
CCc1cc(O)ccc1-c1ccc2c(-c3nc(C4=CCN(CC5CNC(=O)O5)CC4)c[nH]3)n[nH]c2c1F (stereo not drawn) [Example 123]	0.1 to 1	31.6 to 100	0.1 to 1		
CCc1cc(O)ccc1-c1ccc2c(-c3nc(C4=C[C@@H](C(=O)N5CC(N(C)C)C5)NC4)c[nH]3)n[nH]c2c1F [Example 252]	0.1 to 1	100 to 316	0.1 to 1		
CCc1cc(O)ccc1-c1ccc2c(-c3nc(C4=CCN(CCNS(C)(=O)=O)C4)c[nH]3)n[nH]c2c1 [Example 113]	0.1 to 1	10 to 31.6			A (A represents a pKi value ≥10 (Ki≤0.1 nM))
CCc1cc(O)ccc1-c1ccc2c(-c3nc(C4=CCN(Cc5cnc[nH]5)C4)c[nH]3)n[nH]c2c1 [Example 142]		10 to 31.6		A (A represents a pKi value ≥10 (Ki≤0.1 nM))	A (A represents a pKi value ≥10 (Ki≤0.1 nM))
CCc1cc(O)ccc1-c1ccc2c(-c3nc(C4=CCN(CCNS(=O)(=O)C(C)C)CC4)c[nH]3)n[nH]c2c1 [Example 101]	0.1 to 1	10 to 31.6			A (A represents a pKi value ≥10 (Ki≤0.1 nM))
CCc1cc(O)ccc1-c1ccc2c(-c3nc(C4=CCN(C(=O)CN(C)C)C4)c[nH]3)n[nH]c2c1F [Example 333]	0.1 to 1	10 to 31.6			A (A represents a pKi value ≥10 (Ki≤0.1 nM))
CCc1cc(O)ccc1-c1ccc2c(-c3nc(C4=CCCN(C(=O)CN)C4)c[nH]3)n[nH]c2c1 [Example 164]	0.1 to 1	10 to 31.6	0.1 to 1		

Compound	Ki [1] [nM]	IC50 [2] [nM]	Ki [3] [nM]	JAK1 pKi [1]	JAK2 pKi [3]
CCc1cc(O)ccc1-c1ccc2c(-c3nc(C4=CCN(C(=O)[C@H](CO)NC)C4)c[nH]3)n[nH]c2c1F [Example 385]	0.1 to 1	31.6 to 100			A (A represents a pKi value ≥10 (Ki≤0.1 nM))
CCc1cc(O)ccc1-c1ccc2c(-c3nc(C4=C[C@@H](C)N[C@@H](C)C4)c[nH]3)n[nH]c2c1 (racemic) [Example 366]	0.1 to 1	31.6 to 100	0.1 to 1		
CCc1cc(O)ccc1-c1ccc2c(-c3nc(C4=CCCN(C(=O)NC)C4)c[nH]3)n[nH]c2c1 [Example 162]	0.1 to 1	31.6 to 100	0.1 to 1		
CCc1cc(O)ccc1-c1ccc2c(-c3nc(C4=CCN(CCC(=O)NC)C4)c[nH]3)n[nH]c2c1F [Example 342]	0.1 to 1	10 to 31.6	0.1 to 1		
CCc1cc(O)ccc1-c1ccc2c(-c3nc(C4=CCN(CCNC(C)=O)CC4)c[nH]3)n[nH]c2c1F [Example 107]		10 to 31.6		A (A represents a pKi value ≥10 (Ki≤0.1 nM))	A (A represents a pKi value ≥10 (Ki≤0.1 nM))
CCc1cc(O)c(F)cc1-c1ccc2c(-c3nc(C4=CCNC4)c[nH]3)n[nH]c2c1 [Example 285]		3.16 to 10		A (A represents a pKi value ≥10 (Ki≤0.1 nM))	A (A represents a pKi value ≥10 (Ki≤0.1 nM))
CCc1cc(O)ccc1-c1ccc2c(-c3nc(C4=CCN(CCNS(C)(=O)=O)C4)c[nH]3)n[nH]c2c1F [Example 115]	0.1 to 1	10 to 31.6			A (A represents a pKi value ≥10 (Ki≤0.1 nM))
CCc1cc(O)ccc1-c1ccc2c(-c3nc(C4=CCCN(CCN5CCNC5=O)C4)c[nH]3)n[nH]c2c1F [Example 125]	0.1 to 1	31.6 to 100	0.1 to 1		
CCc1cc(O)ccc1-c1ccc2c(-c3nc(C4=C(C(=O)N(C)C)CNCC4)c[nH]3)n[nH]c2c1F [Example 379]	0.1 to 1	31.6 to 100			A (A represents a pKi value ≥10 (Ki≤0.1 nM))
CCc1cc(O)ccc1-c1ccc2c(-c3nc(C4=C[C@H](CC(=O)OC(C)C)NC4)c[nH]3)n[nH]c2c1F [Example 309]	0.1 to 1	10 to 31.6	0.1 to 1		
CCc1cc(O)ccc1-c1ccc2c(-c3nc(C4=C[C@@H](C)NCC4)c[nH]3)n[nH]c2c1F [Example 339]	0.1 to 1	10 to 31.6	0.1 to 1		
CCc1cc(O)ccc1-c1ccc2c(-c3nc(C4=CCN(C5CCC5)[C@H]4CO)c[nH]3)n[nH]c2c1F [Example 304]		10 to 31.6		A (A represents a pKi value ≥10 (Ki≤0.1 nM))	A (A represents a pKi value ≥10 (Ki≤0.1 nM))
CCc1cc(O)ccc1-c1ccc2c(-c3nc(C4=CCCN(CCNC(C)=O)C4)c[nH]3)n[nH]c2c1F [Example 112]	0.1 to 1	10 to 31.6	0.1 to 1		
CCc1cc(O)ccc1-c1ccc2c(-c3nc(C4=C[C@H](CO)N(CCS(C)(=O)=O)C4)c[nH]3)n[nH]c2c1F [Example 279]	0.1 to 1	31.6 to 100			
CCc1cc(O)ccc1-c1ccc2c(-c3nc(C4=C[C@H](CO)N(CCS(=O)(=O)NC)C4)c[nH]3)n[nH]c2c1F [Example 280]		100 to 316			A (A represents a pKi value ≥10 (Ki≤0.1 nM))
CCc1cc(O)ccc1-c1ccc2c(-c3nc(C4=CCCN(C(=O)[C@@H](N)C(C)(C)O)C4)c[nH]3)n[nH]c2c1 [Example 165]	0.1 to 1	10 to 31.6			
